Entries after “also recorded” stand apart in the source; their conditions may differ.
Tested on: untransfected HEK293 cells
Experiment: Confocal Ca2+ imaging in untransfected HEK293 cells (control)
Assay type: cell-based, human
Conditions: menthol 300μM, ±PZQ 100μM, ACh 100μM, capsaicin 1μM, AITC 100μM
Method: HEK293 cells (ATCC CRL-1573.3) were cultured in DMEM supplemented with 10% fetal bovine serum (FBS), penicillin (100 units/ml), streptomycin (100 μg/ml), and L-glutamine (290 μg/ml). Cells were transiently transfected (Lipofectamine LTX, Thermo Fisher) at a density of 2x10^6 cells per T-25 cell-culture flask with TRP channel cDNA. For Ca^2+ imaging assays, HEK293 cells were seeded onto 8-chambered coverglass slides (Thermo Fisher, 115411PK), at a density of 1x10^4 cells one day prior to imaging. Cells were washed twice with HBSS, and incubated with fluo-4-AM (4μM), pluronic F127 (0.4%) and probenecid (2.5mM) for 25 minutes at room temperature. Cells were then washed twice with HBSS, and left at room temperature (30 minutes) for de-esterification. Dishes were mounted on an Olympus IX81 microscope and fluorescence changes (λex = 488nM, λem = 513±15nm bandpass filter) monitored using a Yogokawa spinning disk confocal (CSU-X-M1N) and an Andor iXon Ultra 888 EMCCD camera.

O=C(C1CCCCC1)N1CC(=O)N2CCc3ccccc3C2C1 (racemic) [±PZQ, praziquantel]
Ca2+ response in untransfected HEK293 cells: neither ±PZQ or menthol elevated cytoplasmic Ca^2+ levels; also recorded: neither the addition of the TRPV1 agonist capsaicin (1μM) nor addition of ±PZQ evoked a Ca^2+ response; also recorded: without effect

Reference: PMC5927461, “Activation of host transient receptor potential (TRP) channels by praziquantel stereoisomers” (PLoS Neglected Tropical Diseases, 2018)
